From patent US20100183684A1, “Oral vaccination” (Bio Life Science, priority 2002, published 2010)
Counter-ions that a name gives are not always drawn.

System: caviar extract
Assay: Antibody induction against orally fed caviar extract in mice, measured by ELISA
Assay type: in vivo
Details: Balb/c mice, gastric acid reducing agent with 2 mg caviar protein extract orally, fed simultaneously or with a time delay, not against daily diet; for induction of IgE antibodies against caviar extract: ELISA OD 405/450 nm
Description: Four groups (A to D) with five Balb/c mice each were treated in the following way: • Group A: Oral administration of Zantac (ULSAL®, active agent: 20 microg ranitidine per mouse, single dose per mouse one hour before feeding […] with antigen) and antigen (2 mg caviar protein extract per mouse), • Group B: Oral administration of a mixture of Ulcogant (active agent: 2 mg sucralfate per mouse) and antigen (2 mg caviar protein extract per mouse), • Group C: Comparative example with intraperitoneal administration of caviar antigen (2 mg) and aluminum hydroxide as an adjuvant, • Group D: Comparative example with oral administration of antigen (2 mg).
The antigen used was caviar extract. As a reference regarding the caviar extract used, the publication by Untersmayr E, Schöll I, Förster-Waldl E, Walter F, Riemer A, Boltz-Nitulescu G, Scheiner O, Jensen-Jarolim E. J Allergy and Immun. 2002; 109 (6): 1034-5 is cited. The antigen contained therein has a molecular weight of 118 kDa.
The obtained results are rendered in FIG. 1. […] Groups A and B were given the antigen in conjunction with a gastric acid reducing agent orally according to the invention, while for comparison purposes group C was immunized according to a standard scheme for IgE induction, and group D was given the antigen orally without gastric acid reducing agent.

CNC(=C[N+](=O)[O-])NCCSCc1ccc(CN(C)C)o1 [Zantac, ranitidine hydrochloride]
induction of IgE antibodies against caviar extract: lasting induction | induction of IgG antibodies against caviar extract: lasting induction

aluminum sucrose hydrogen sulfate [Ulcogant]
induction of IgE antibodies against caviar extract: lasting induction | induction of IgG antibodies against caviar extract: lasting induction
